Laboratory results: PubChem BioAssay AID179 (DTP/NCI, 2004)
pEC50, pIC50: −log10 of the molar value. Active and inactive are the calls of the source.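 How the source made its calls: active means compounds giving half or more protection of infected cells from virus-caused growth loss, again on retest; inactive means the rest.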 Where a SMILES comes first, the peptide text is derived from it.

System: CEM cells HIV-1 protection, formazan growth assay
Assay: NCI AIDS Antiviral Assay
Settings: for pIC50: measured here: growth of uninfected CEM cells
Outline: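 Human CEM cells, uninfected and HIV-1-infected, exposed to five drug concentrations; growth measured by soluble formazan assay and scored as percent protection from infection, with protecting compounds retested.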

Row | SMILES | pEC50 | pIC50 | outcome
1 | NNC(=S)N/N=C(/C(=O)Nc1ccc([N+](=O)[O-])cc1)c1nc2ccc([N+](=O)[O-])cc2[nH]c1=O | < 3.84 | < 3.84 | 
2 | O=c1[nH]c2nc3ccccc3c(=O)n2/c1=C/c1ccco1 | < 3.70 | < 3.70 | 
3 | N#CC(C#N)=C1SC(=Nc2ccccc2)C(=Nc2ccccc2)N1c1ccccc1 | < 3.70 | 6.00 | 
4 | COc1cc2c(c(OC)c1OC)-c1cc3c(cc1C(=O)CC(C(=O)O)(C(=O)O)C2)OCO3 | < 3.25 | < 3.25 | 
5 | O=C(CN1CCOCC1)c1ccc2c(c1)oc(=O)n2CCN1CCOCC1 | < 3.70 | < 3.70 | 
6 | C=CCOc1ccc(C2C(C(=O)OCC)C(=O)CC(C)(O)C2C(=O)OCC)cc1OC (stereo not drawn) | < 3.70 | < 3.70 | 
7 | Cc1ccc(NC(=O)CCc2cc(C(C)(C)C)nc(NC#N)n2)cc1C |  |  | inactive
8 | CC(C)CC(N)CO (stereo not drawn) | < 3.70 | < 3.70 | 
9 | COc1cc(C2c3cc4c(cc3C(NCC(O)CO)C3COC(=O)[C@H]23)OCO4)cc(OC)c1OC (stereo partly drawn) |  |  | inactive
10 | O=C1CSC(Cc2nc3ccccc3[nH]2)=N1 | < 4.51 | < 4.51 | 
11 | COC(=O)C1(C)OS(=O)(=O)c2ccccc21 (stereo not drawn) | < 3.27 | < 3.27 | 
12 | CCCCCCCCCCCCOCC1(COCCCCCCCCCCCC)COC(c2ccc(N)cc2)OC1 | < 3.70 | < 3.70 | 
13 | O=C([O-])C(F)(F)F.[C-]#[O+].[C-]#[O+].[C-]#[O+].[C-]#[O+].[C-]#[O+].[Mn] | < 3.09 | 4.35 | 
14 | C[C@]12Cc3conc3C(O)=C1CC[C@@H]1C2CC[C@@]2(C)C1CC[C@@H]2O (stereo partly drawn) | < 3.69 | 4.59 | 
15 | CC1(C)CC(C)(Br)C(Br)C(=O)C1C(O)(C(F)(F)F)C(F)(F)F (stereo not drawn) | < 3.70 | 4.48 | 
16 | COC(=O)CC1NC(=O)[C@]1(C)[C@H](C)O (stereo partly drawn) | < 2.91 | < 2.91 | 
17 | CC1(c2nc3ccccc3[nH]2)CCC(C(=O)O)C(C)(C)O1 (stereo not drawn) | < 3.70 | 3.82 | 
18 | O=c1[nH]c(=O)n(C2OC(CO)C(O)C2O)c(NNc2ccccc2)c1NNc1ccccc1 (stereo not drawn) | 3.84 | < 3.70 | 
19 | C=CCCC(OCOCCOC)c1cc(C)c(O[Si](C)(C)C(C)(C)C)c(C)c1 (stereo not drawn) | < 4.30 | 4.53 | 
20 | O=C(O)c1cccc(S(=O)(=O)c2ccccc2)c1 | < 3.70 | < 3.70 | 
21 | COc1cc(\C=N/N=C/C=C/c2ccccc2)cc(OC)c1OC |  |  | inactive
22 | O=C(CCCCCCCCCCc1ccccc1)C1=C(O)C(O)CCC1=O (stereo not drawn) |  |  | inactive

Row | SMILES | pEC50 | pIC50 | outcome
23 | Cc1cccc(C)c1NC(=O)C(C#N)C1=C(Cl)C(=O)c2ccccc2C1=O (stereo not drawn) | < 4.58 | 5.06 | 
24 | Cn1c(=O)c2c(nc(N)n2C2OC(CO)C(O)C2O)n(C)c1=O (stereo not drawn) | < 3.70 | < 3.70 | 
25 | CCN(CC)CCN(C)CC(C)(C)C(=O)/C=C/c1ccccc1 |  |  | inactive
26 | CCOC(=O)c1nc(SC)sc1NC(=O)c1ccc(Cl)cc1 | < 3.70 | 3.71 | 
27 | CC(C)CC(NC(=O)C(Cc1ccc(O)cc1)NC(=O)C(CO)NC(=O)C(CCC(N)=O)NC(=O)C1CCCN1C(=O)C(CC(C)C)NC(=O)C(C)NC(=O)CNC(=O)C(N)CCC(N)=O)C(=O)NCC(=O)O (stereo not drawn) (H-QGALPQSYLG-OH; configuration not given here) |  |  | inactive
28 | Clc1cc2nnn(C3CCCO3)c2cc1Cl (stereo not drawn) | < 3.70 | 3.91 | 
29 | CN(C)C=Nc1cccc2c1NSN2 | < 3.70 | < 3.70 | 
30 | CC1=C(N2CC2)C(=O)c2nc3n(c2C1=O)CCC3OC(=O)CCl (stereo not drawn) | < 3.70 | 6.16 | 
31 | COc1ccc(/C(Nc2ccccc2)=C(\CCl)c2ccccc2)cc1OC | < 3.70 | 4.50 | 
32 | OC(C/C=N/Nc1ccccc1)(C(F)(F)Cl)C(F)(F)Cl | < 3.70 | 5.00 | 
33 | Cc1cc(N(CCC#N)CCC#N)ccc1/C=C1/N=C(c2ccccc2)N(N)C1=O | < 4.20 | 4.37 | 
34 | O=c1n(-c2ccccc2)c(=O)n2c(-c3ccccc3)c(-c3ccccc3)n12 | < 3.70 | 4.51 | 
35 | Oc1ccccc1/C=N/NC(=S)Nc1cccc2cc3ccccc3nc12 | < 3.70 | 6.24 | 
36 | Clc1ccc(OCC(COc2ccccc2)Oc2nc(-c3ccccc3)nc(-c3ccccc3)n2)cc1 (stereo not drawn) | < 5.41 | < 5.41 | 
37 | N#Cc1ccc(NC(=NCC(=O)O)Nc2ccc3ccccc3c2)cc1 |  |  | inactive
38 | Cc1cc(C)cc(OCC2CNC(=O)O2)c1 (stereo not drawn) | < 3.70 | < 3.70 | 
39 | CCc1ccccc1NC(=O)C(=O)CC(=O)c1sc(Nc2ccccc2)nc1C | < 4.05 | 4.27 | 
40 | NC(=S)N/N=C/C(O[C@@H](/C=N/NC(N)=S)CO)n1cnc2c(N)ncnc21 (stereo partly drawn) | < 3.36 | 4.05 | 
41 | COc1cccc(C2c3cc4c(cc3OC(O)C2C)OCO4)c1OC (stereo not drawn) | < 3.70 | 5.82 | 
42 | Cc1cn([C@H]2C[C@](C)(CO)N(C)O2)c(=O)[nH]c1=O | < 3.70 | < 3.70 | 
43 | CC1=C(CO)C(=O)O[C@@H]([C@@H](CO)[C@H]2CCC3C4C[C@@H](O)[C@@]5(O)CC=CC(=O)[C@]5(C)C4CC[C@@]32C)C1 (stereo partly drawn) |  |  | inactive
